# Source: patent publication US20130295199A1, “Composition Comprising OPC and Omega-3 for Preventing and/or Inhibiting the Development of Diabetic Retinopathy” (VISIOTACT PHARMA, priority 2011, published 2013)
# Columns and labels:
# [1] = tested on: Type-1 streptozotocin-induced diabetic Sprague-Dawley rats; test: Streptozotocin-induced diabetic rat model: body weight, blood glucose, glycated hemoglobin; assay type: in vivo; conditions: STZ-induced diabetic Sprague-Dawley rats, after 90 days of treatment, n=20/group, mean +/- SEM
# Procedure: (§1) Sprague-Dawley rats (Harlan), weighing 75-100 g, were assigned to one of eight subgroups, based on non-diabetic, untreated diabetic and treated diabetic groups as indicated here-under. Sprague-Dawley rats were housed in a constant environment (room temperature (22.0±1.5)° C., room humidity (55±5) %) with a normal light-dark cycle (12-hour light, 12-hour dark). Diabetes was induced by intraperitoneal streptozotocin injection (75 mg/kg STZ, 10 mM citrate buffer, pH 4.5). Non-diabetic control animals received an equivalent dose of vehicle (citrate buffer at pH 4.6).
# To analyse the effect of the composition of the invention, animals are fed as followed:
# Diabetic and non-diabetic groups were examined biweekly to follow blood glucose and the body weight was recorded. 50 μL of whole blood was collected in potassium-EDTA tubes (Becton Dickinson) for subsequent analysis of glycated hemoglobin (GHb).
# [2] = tested on: retinal acellular capillaries; test: Quantitation of acellular capillaries in retina of diabetic animals; assay type: in vivo, rat; conditions: FIG. 5, result in words
# Procedure: as §1
# Evaluation of the retinal vasculature is done following adenosine diphosphatase (ADPase) activity in whole embedded retina. After overnight fixation in 2% PFA in 0.1 M cacodylate buffer at 4° C., an incision was made 2 mm posterior to the ora serrata, and the anterior segment of the eye was removed. […] The ADPase-incubated retina was washed in 0.1 M cacodylate buffer with 5% sucrose. […] Retinal microvascular density was quantified using Image J software.
# After TUNEL-positive cells were counted, coverslips were soaked off, and the retinal vasculature then was stained with hematoxylin-periodic acid-Schiff. Acellular capillaries were counted in four to seven field areas in the mid retina. […] Although counting the ghosts, at least 1000 capillary cells (endothelial cells and pericytes) were counted in five mid-retinal field areas. […]
# [3] = tested on: advanced glycation end product (AGE), retinal carboxymethyl-lysine; test: Retinal carboxymethyl-lysine measurement (AGE-product quantification), ELISA; assay type: in vivo, rat; conditions: STZ-induced diabetic Sprague-Dawley rats, after 90 days of treatment, n=20/group, mean +/- SEM
# Procedure: as §1
# Retinal samples were exposed to ultrasonic disruption in RIPA buffer. After tissue debris suppression by centrifugation, protein level of samples was measured using bicinchoninic acid (BCA) protein assay kit (Pierce). Sample (concentration: 50 μg/mL) or advanced glycation end product (AGE)-BSA standard (0 to 200 μM) diluted in 0.05% Tween 20 and 0.2% BSA in 75 mM PBS were placed in duplicate into 96-wells plate (Nunc C96 Maxisorp; eBioscience) coated with solid-phase antigen (1 μg/mL AGE-BSA). Anti-CML rabbit polyclonal antibody was added for 2 hours at room temperature and then washed in 0.2 mM KH2PO4, 1.4 mM K2HPO4, 3 mM NaCl, 0.45 μM sorbic acid potassium, and 0.01% Tween-20 buffer. […] Absorbance was measured at 450 nm on a microplate reader (Biorad).
substance,measurement,setting,value
docosahexaneoic acid (DHA) [Group G2],Body weight,[1],220 ± 10 g
same,GHb (glycated hemoglobin),[1],5.85 +/− 0.03%
same,Glucose,[1],525 ± 10 mg/dL
same,Capillary degeneration (degenerated acellular capillaries),[2],significantly inhibited
same,AGE (advanced glycation end product),[3],0.026 +/− 0.004 AU/mg
